Experiments:
[1] = DSC doublet peak area (α-structure) of hair after heat cycles; conditions: for Doublet Peak Area: bleached/permed hair after 12 heat cycles, 0.06 M solutions
Description: Normal blonde hair was bleached with Clairol Basic White Bleach (40 volume H2O2) for 20 min at standard room temperature and humidity. The bleached swatches were rinsed with tap water, and soaked in an excess of deionized water for 2 hours. The swatches were air-dried and equilibrated for 48 hours prior to further treatment. Some of the bleached swatches were subsequently “permed” using a Reforming Lotion (10% TGA, pH 8.8, 20 minutes) and then neutralized with 2% H2O2, pH 3 (5 minutes). The bleached/permed swatches were rinsed with tap water, and soaked in an excess of deionized water for 2 hours. The swatches were air-dried and equilibrated for 48 hours prior to further treatment. The swatches that were heat treated were treated with 0.06M solutions of hexoses and pentoses for 10 min at 45° C. and then were heated for 12 cycles. The swatches were rinsed after the heat application. In the DSC tests, finely cut hair (4-5 mg) was crimped in an aluminum pan that was punctured prior to each run. The samples were heated from 25° C. to 300° C., at a scanning rate of 20° C./min, with 5 runs per treatment. The results were averaged. Normal blonde hair was divided in two batches. The hair from the first batch was bleached with Clairol Basic White Bleach, 40 volume H2O2, for 20 min at room temperature and humidity. The hair from the second batch was first bleached as above, and then permed: Reforming lotion-10% Thioglycolic acid, pH 8.8, 20 min; neutralizer-2% hydrogen peroxide, 5 min. The oxidatively damaged hair was equilibrated for 24 hours prior to further testing. Both the bleached and the bleached/permed hair were subjected to heat treatment, as in Example 2. The heat treatment experiment involved 12 heat cycles including application of sugar or control solution before each heat application, and rinsing after the heat application. Deionized water was used as a control treatment. After the heat experiment, the hair was rinsed in water, air-dried, and equilibrated for 24 h in the humidity chamber at 25° C. and 50% RH prior to further testing. The effect of the hexoses vs. pentoses on the dry tensile strength (INSTRON) and the alpha-structure (doublet peak area, DSC) was tested on the bleached hair (Table 13). The effect of a hexose (D-glucose) vs. a pentose (D-Xylose) on wet tensile strength (DIA-STRON) was tested both on the bleached and the bleached/permed hair (Table 14). Application of 0.06M solutions of pentoses protected the bleached and the bleached/permed hair against thermal damage (α-structure; wet and dry tensile strength).

[2] = as above; conditions: for Doublet Peak Area, normalized: 5 cycles
Description: Normal blonde hair was bleached with Clairol Basic White Bleach (40 volume H2O2) for 20 min at standard room temperature and humidity. The bleached swatches were rinsed with tap water, and soaked in an excess of deionized water for 2 hours. The swatches were air-dried and equilibrated for 48 hours prior to further treatment. Some of the bleached swatches were subsequently “permed” using a Reforming Lotion (10% TGA, pH 8.8, 20 minutes) and then neutralized with 2% H2O2, pH 3 (5 minutes). The bleached/permed swatches were rinsed with tap water, and soaked in an excess of deionized water for 2 hours. The swatches were air-dried and equilibrated for 48 hours prior to further treatment. The swatches that were heat treated were treated with 0.06M solutions of hexoses and pentoses for 10 min at 45° C. and then were heated for 12 cycles. The swatches were rinsed after the heat application.
In the DSC tests, finely cut hair (4-5 mg) was crimped in an aluminum pan that was punctured prior to each run. The samples were heated from 25° C. to 300° C., at a scanning rate of 20° C./min, with 5 runs per treatment. The results were averaged.
Normal blonde hair was bleached with Clairol Basic White Bleach, 40 volume H2O2, for 20 min at room temperature. One batch of normal and bleached hair swatches underwent five heat cycles at 130° C., where one treatment cycle involved the following steps (1-4):
1. The swatches were treated with 0.06 M solutions of monosaccharides in deionized water (about 1 wt %) for 10 min at 45° C.
2. The treated swatches were blow-dried for 1 min.
3. The heat was applied for 1 min in the form of a flat hair iron Windmere “Solid Gold” (130° C.).
4. The swatches were rinsed and blot-dried with a paper-towel.
The treatment solutions included four pentoses (D-xylose, D-arabinose, D-lyxose, and D-ribose, 1% each) and one hexose (1.2% D-glucose). Deionized water was used as a control treatment. After the heat experiment, the hair was rinsed in water, air-dried, and equilibrated for 24 hours in the humidity chamber at 25° C. and 50% RH prior to further testing. These swatches are referred to as treated at 130° C.
A second batch of normal and bleached hair swatches were treated in a similar way and blow-dried, without application of the hot iron. The treatment was also repeated 5 times, the swatches from the second batch are referred to as treated at 45° C.
Normal blonde hair was subjected to 12 heat cycles, as described in Example 2, using the following treatment solutions: 0.1% D-Xylose (pentose), 0.1% D-Erythrose (tetrose), and 0.1% D-Glyceraldehyde (triose). Each of the C3 to C5 monosaccharides was effective in protecting or reducing the damage to the α-structure of the hair, as compared to water treatment (Table 15).
Normal blonde hair was subjected to 12 heat cycles, as described in Example 2, using 0.1 wt % of the pentose amine derivative, D-Lyxosylimine in deionized water.

[3] = normal blonde hair, 5 cycles at 45° C., 0.06 M solutions
[4] = normal blonde hair, 45° C. (blow drying)
[5] = normal blonde hair, 130° C. (blow-drying + hot iron)
[6] = normal blonde hair, 5 heat cycles at 130° C., 0.06 M solutions

Row | Compound | Doublet Peak Area [1] | Normalized area ([1]; bleached/permed hair, 12 heat cycles, 0.06 M) | Normalized area ([2]; normal blonde hair after 12 heat cycles, 1% in water) | Doublet Peak Area ([2]; normal blonde hair, 0.1 wt % solutions, 12 heat cycles at 130° C.) | Doublet Peak Area [2, 3] | Doublet Peak Area, normalized [2, 4] | Doublet Peak Area, normalized [2, 5] | Doublet Peak Area [2, 6] | protection of the hair structure as compared to water (DSC), in words ([2]; normal blonde hair, 12 heat cycles, 1% in water)
1 | O=C[C@H](O)[C@@H](O)[C@H](O)CO [D-Xylose] | 9.78 +/− 1.48 J/g hair | 9.78 +/− 1.48 J/g hair | 16.05 +/− 5.05 J/g hair | 12.74 +/− 2.32 J/g hair | 20.17 +/− 11.98 J/g hair | 20.17 +/− 11.98 J/g hair | 15.27 +/− 5.14 J/g hair | 15.27 +/− 5.14 J/g hair | appeared to protect the hair structure
2 | O=C[C@H](O)[C@@H](O)[C@H](O)[C@H](O)CO [D-Glucose, reference compound] | 4.96 +/− 0.32 J/g hair | – | – | – | 11.65 +/− 4.98 J/g hair | 11.65 +/− 4.98 J/g hair | 7.60 +/− 1.01 J/g hair | 7.60 +/− 1.01 J/g hair | –
